Experimental data published in patent US7846959B2, “Raf modulators and methods of use” (Exelixis, Inc., priority 2004, dated 2010).
Where two headings read alike, the source gives them in different places.

Key:
B-Raf = B-Raf (Homo sapiens, UniProt P15056); assay: Luciferase-coupled chemiluminescence kinase assay (ATP consumption), B-Raf; type: biochemical
Method in brief: (§1)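 ATP depletion, limited to 25-60%, read by luciferase-luciferin chemiluminescence gives IC50 values. Before the 3 hr ambient-temperature kinase reaction with ATP, compound and […] enzyme were preincubated 30 minutes at room temperature in Tris pH 7.5 buffer with MgCl2, TX-100 and DTT.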

c-Raf = c-Raf (Homo sapiens, UniProt P04049); assay: Luciferase-coupled chemiluminescence kinase assay (ATP consumption), c-Raf; type: biochemical
c-Raf, sequence (P04049 whole entry): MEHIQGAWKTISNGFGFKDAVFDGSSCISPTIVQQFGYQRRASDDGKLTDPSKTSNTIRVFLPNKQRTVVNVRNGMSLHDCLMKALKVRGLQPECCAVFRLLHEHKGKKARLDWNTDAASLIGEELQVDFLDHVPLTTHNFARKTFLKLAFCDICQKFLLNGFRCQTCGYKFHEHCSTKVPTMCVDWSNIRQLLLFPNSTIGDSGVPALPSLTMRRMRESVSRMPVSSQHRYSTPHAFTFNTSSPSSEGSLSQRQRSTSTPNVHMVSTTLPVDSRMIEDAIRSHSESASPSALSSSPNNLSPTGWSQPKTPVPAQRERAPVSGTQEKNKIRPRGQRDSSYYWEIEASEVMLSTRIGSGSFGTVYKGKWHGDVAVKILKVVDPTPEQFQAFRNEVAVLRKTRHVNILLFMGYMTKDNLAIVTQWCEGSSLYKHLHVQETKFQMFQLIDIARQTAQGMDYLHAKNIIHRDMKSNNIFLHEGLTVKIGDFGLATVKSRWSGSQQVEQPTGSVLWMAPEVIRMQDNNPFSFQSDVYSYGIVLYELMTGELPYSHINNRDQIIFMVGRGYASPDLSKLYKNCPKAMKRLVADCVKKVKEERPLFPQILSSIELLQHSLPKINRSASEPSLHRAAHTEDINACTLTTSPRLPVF
Method in brief: as §1

[1] = read-out: bRaf (inhibition indicated as IC50)
[2] = read-out: cRaf-1 (inhibition indicated as IC50)

B-Raf, sequence (P15056 whole entry): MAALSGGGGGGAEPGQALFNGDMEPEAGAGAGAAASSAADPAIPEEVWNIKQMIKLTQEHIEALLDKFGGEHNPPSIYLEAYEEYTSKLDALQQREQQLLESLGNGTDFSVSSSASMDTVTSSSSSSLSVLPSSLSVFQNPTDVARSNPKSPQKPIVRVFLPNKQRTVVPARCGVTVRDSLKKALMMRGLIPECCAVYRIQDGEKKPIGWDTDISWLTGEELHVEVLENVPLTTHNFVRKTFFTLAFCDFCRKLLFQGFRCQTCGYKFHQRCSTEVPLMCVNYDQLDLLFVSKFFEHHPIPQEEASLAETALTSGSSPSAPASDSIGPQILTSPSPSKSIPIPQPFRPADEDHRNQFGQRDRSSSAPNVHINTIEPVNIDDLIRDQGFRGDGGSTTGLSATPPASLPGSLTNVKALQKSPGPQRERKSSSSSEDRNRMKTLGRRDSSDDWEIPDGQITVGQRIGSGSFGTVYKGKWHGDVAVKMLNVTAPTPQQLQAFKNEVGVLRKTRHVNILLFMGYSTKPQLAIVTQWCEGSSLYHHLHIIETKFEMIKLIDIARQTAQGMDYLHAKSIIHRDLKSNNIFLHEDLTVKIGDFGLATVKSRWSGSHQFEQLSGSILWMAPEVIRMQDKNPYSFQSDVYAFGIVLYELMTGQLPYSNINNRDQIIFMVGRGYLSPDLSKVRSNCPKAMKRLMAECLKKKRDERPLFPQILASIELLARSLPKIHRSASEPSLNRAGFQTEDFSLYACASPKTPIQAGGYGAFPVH

Row | Compound | IC50 (B-Raf; read-out: bRaf IC50) [nM] | IC50 (c-Raf; read-out: cRaf-1 IC50) [nM] | IC50 (B-Raf; [1]) [nM] | IC50 (c-Raf; [2]) [nM]
1 | COC(=O)Nc1nc2cc(C3(O)c4ccccc4C(=O)N3c3cccc(N(C)C)c3)ccc2[nH]1 (centres unmarked) [Entry 258, methyl (5-{2-[3-(dimethylamino)phenyl]-1-hydroxy-3-oxo-2,3-dihydro-1H-isoindol-1-yl}-1H-benzimidazol-2-yl)carbamate] | < 100 | < 100 |  | 
2 | O=C(Nc1nc2ccc(C3(O)c4ccccc4C(=O)N3Cc3ccccc3)cc2[nH]1)C1CC1(F)F (centres unmarked) [Entry 259, 2,2-difluoro-N-{6-[1-hydroxy-3-oxo-2-(phenylmethyl)-2,3-dihydro-1H-isoindol-1-yl]-1H-benzimidazol-2-yl}cyclopropanecarboxamide] | < 100 | < 100 |  | 
3 | CCNC(=O)Nc1nc2ccc(C3(O)c4ccccc4C(=O)N3c3ccc(F)cc3)cc2[nH]1 (centres unmarked) [Entry 260, N-ethyl-N′-{6-[2-(4-fluorophenyl)-1-hydroxy-3-oxo-2,3-dihydro-1H-isoindol-1-yl]-1H-benzimidazol-2-yl}urea] | < 100 | < 100 |  | 
4 | COC(=O)Nc1nc2cc(C3(O)c4ccccc4C(=O)N3c3cccc(N)c3)ccc2[nH]1 (centres unmarked) [Entry 261, methyl {5-[2-(3-aminophenyl)-1-hydroxy-3-oxo-2,3-dihydro-1H-isoindol-1-yl]-1H-benzimidazol-2-yl}carbamate] | < 100 | < 100 |  | 
5 | O=C(CCCOCc1ccccc1)Nc1nc2cc(C3(O)c4ccccc4C(=O)N3Cc3ccccc3)ccc2[nH]1 (centres unmarked) [Entry 262, N-{5-[1-hydroxy-3-oxo-2-(phenylmethyl)-2,3-dihydro-1H-isoindol-1-yl]-1H-benzimidazol-2-yl}-4-[(phenylmethyl)oxy]butanamide] | < 100 | < 100 |  | 
6 | O=C(CCCN1CCCCC1)Nc1nc2cc(C3(O)c4ccccc4C(=O)N3Cc3ccccc3)ccc2[nH]1 (centres unmarked) [Entry 263, N-{5-[1-hydroxy-3-oxo-2-(phenylmethyl)-2,3-dihydro-1H-isoindol-1-yl]-1H-benzimidazol-2-yl}-4-piperidin-1-ylbutanamide] | < 100 | < 100 |  | 
7 | CN1CCN(CCCC(=O)Nc2nc3cc(C4(O)c5ccccc5C(=O)N4Cc4ccccc4)ccc3[nH]2)CC1 (centres unmarked) [Entry 264, N-{5-[1-hydroxy-3-oxo-2-(phenylmethyl)-2,3-dihydro-1H-isoindol-1-yl]-1H-benzimidazol-2-yl}-4-(4-methylpiperazin-1-yl)butanamide] | < 100 | < 100 |  | 
8 | CCCC(=O)Nc1nc2ccc(C3(O)c4ccccc4C(=O)N3c3ccc(F)cc3)cc2[nH]1 (centres unmarked) [Entry 265, N-{6-[2-(4-fluorophenyl)-1-hydroxy-3-oxo-2,3-dihydro-1H-isoindol-1-yl]-1H-benzimidazol-2-yl}butanamide] | < 100 | < 100 |  | 
9 | COC(=O)Nc1nc2ccc(C3(O)c4cc(Cl)c(Cl)cc4C(=O)N3c3cccc(Br)c3)cc2[nH]1 (centres unmarked) [Entry 266, methyl {6-[2-(3-bromophenyl)-5,6-dichloro-1-hydroxy-3-oxo-2,3-dihydro-1H-isoindol-1-yl]-1H-benzimidazol-2-yl}carbamate] | 1000 to 10000 | 1000 to 10000 |  | 
10 | COC(=O)Nc1nc2cc(C3(O)c4ccccc4C(=O)N3c3cccc(N(C)c4ccccc4)c3)ccc2[nH]1 (centres unmarked) [Entry 267, methyl [5-(1-hydroxy-2-{3-[methyl(phenyl)amino]phenyl}-3-oxo-2,3-dihydro-1H-isoindol-1-yl)-1H-benzimidazol-2-yl]carbamate] | < 100 | < 100 |  | 
11 | COC(=O)Nc1nc2cc(C3(O)c4ccccc4C(=O)N3S(=O)(=O)c3ccccc3)ccc2[nH]1 (centres unmarked) [Entry 268, methyl {5-[1-hydroxy-3-oxo-2-(phenylsulfonyl)-2,3-dihydro-1H-isoindol-1-yl]-1H-benzimidazol-2-yl}carbamate] |  |  | 1000 to 10000 | 1000 to 10000
12 | COC(=O)Nc1nc2cc(C(=O)c3ccccc3NC(=O)Nc3ccccc3)ccc2[nH]1 [Entry 269, methyl {5-[(2-{[(phenylamino)carbonyl]amino}phenyl)carbonyl]-1H-benzimidazol-2-yl}carbamate] |  |  | 100 to 1000 | 100 to 1000
13 | COC(=O)Nc1nc2cc(C(=O)c3ccccc3NC(=O)OCc3ccccc3)ccc2[nH]1 [Entry 270, methyl (5-{[2-({[(phenylmethyl)oxy]carbonyl}amino)pheny]carbonyl}-1H-benzimidazol-2-yl)carbamate] |  |  | 1000 to 10000 | 1000 to 10000

Second part, the compound after the results:

Row | IC50 (B-Raf; read-out: bRaf IC50) [nM] | IC50 (c-Raf; read-out: cRaf-1 IC50) [nM] | IC50 (B-Raf; [1]) [nM] | IC50 (c-Raf; [2]) [nM] | Compound
14 |  |  | 100 to 1000 | 100 to 1000 | COC(=O)Nc1nc2cc(C(=O)c3ccccc3C(=O)NNc3ccccc3)ccc2[nH]1 [Entry 271, methyl [5-({2-[(2-phenylhydrazino)carbonyl]phenyl}carbonyl)-1H-benzimidazol-2-yl]carbamate]
15 |  |  | < 100 | < 100 | COC(=O)Nc1nc2cc(C(=O)c3ccccc3C(=O)NOc3ccccc3)ccc2[nH]1 [Entry 272, methyl {5-[(2-{[(phenyloxy)amino]carbonyl}phenyl)carbonyl]-1H-benzimidazol-2-yl}carbamate]
16 |  |  | < 100 | < 100 | CC#CCOC(=O)Nc1nc2cc(C3(O)c4ccccc4C(=O)N3c3ccc(F)cc3)ccc2[nH]1 (centres unmarked) [Entry 273, but-2-yn-1-yl {5-[2-(4-fluorophenyl)-1-hydroxy-3-oxo-2,3-dihydro-1H-isoindol-1-yl]-1H-benzimidazol-2-yl}carbamate]
17 |  |  | < 100 | < 100 | O=C(CCN1CCCCC1)Nc1nc2cc(C3(O)c4ccccc4C(=O)N3Cc3ccccc3)ccc2[nH]1 (centres unmarked) [Entry 274, N-{5-[1-hydroxy-3-oxo-2-(phenylmethyl)-2,3-dihydro-1H-isoindol-1-yl]-1H-benzimidazol-2-yl}-3-piperidin-1-ylpropanamide]
18 |  |  | < 100 | < 100 | CCC(=O)Nc1nc2ccc(C3(O)c4ccccc4C(=O)N3c3ccc(F)cc3)cc2[nH]1 (centres unmarked) [Entry 275, N-{6-[2-(4-fluorophenyl)-1-hydroxy-3-oxo-2,3-dihydro-1H-isoindol-1-yl]-1H-benzimidazol-2-yl}propanamide]
19 |  |  | < 100 | < 100 | C#CCCC(=O)Nc1nc2ccc(C(=O)c3ccccc3C(=O)Nc3ccc(F)cc3)cc2[nH]1 [Entry 276, N-(4-fluorophenyl)-2-{[2-(pent-4-ynoylamino)-1H-benzimidazol-6-yl]carbonyl}benzamide]
20 |  |  | < 100 | < 100 | CCN(CC)CCCC(=O)Nc1nc2cc(C3(O)c4ccccc4C(=O)N3Cc3ccccc3)ccc2[nH]1 (centres unmarked) [Entry 277, 4-(diethylamino)-N-{5-[1-hydroxy-3-oxo-2-(phenylmethyl)-2,3-dihydro-1H-isoindol-1-yl]-1H-benzimidazol-2-yl}butanamide]
21 |  |  | < 100 | < 100 | O=C(CCCN1CCCC1)Nc1nc2cc(C3(O)c4ccccc4C(=O)N3Cc3ccccc3)ccc2[nH]1 (centres unmarked) [Entry 278, N-{5-[1-hydroxy-3-oxo-2-(phenylmethyl)-2,3-dihydro-1H-isoindol-1-yl]-1H-benzimidazol-2-yl}-4-pyrrolidin-1-ylbutanamide]
22 |  |  | 100 to 1000 | < 100 | O=C(Nc1nc2ccc(C3(O)c4ccccc4C(=O)N3c3ccc(F)cc3)cc2[nH]1)OCCCN1CCCCC1 (centres unmarked) [Entry 279, 3-piperidin-1-ylpropyl {6-[2-(4-fluorophenyl)-1-hydroxy-3-oxo-2,3-dihydro-1H-isoindol-1-yl]-1H-benzimidazol-2-yl}carbamate]
